Paper PMC11995724, “Antibiotic target discovery by integrated phenotypic and activity-based profiling of electrophilic fragments” (Cell chemical biology, 2025)

Assay: in vitro
Details: human, hek293t cells

Going from `C[C@H](NC(=O)CCl)C(=O)N1CCCCC1` [7-L14, 2-chloro-N-[(2S)-1-oxo-1-(piperidin-1-yl)propan-2-yl]acetamide] to `O=C(CCl)NCCCC(=O)N1CCCC1` [7-N08, 2-chloro-N-[4-oxo-4-(pyrrolidin-1-yl)butyl]acetamide], the viability at 48 h, 25 µM rises from 70.1% to 93.6%.

Compared with `CC(Cl)C(=O)N1CCCN(c2ccc(-c3ccccc3)nn2)CC1` (stereo not shown) [7-L15, 2-chloro-1-[4-(6-phenylpyridazin-3-yl)-1,4-diazepan-1-yl]propan-1-one], `CC(Cl)C(=O)N1CCN(Cc2nnnn2-c2ccccc2)CC1` (stereo not shown) [7-N05, 2-chloro-1-{4-[(1-phenyl-1H-1,2,3,4-tetrazol-5-yl)methyl]piperazin-1-yl}propan-1-one] is higher in viability at 48 h, 25 µM: 76.7% for the first, 97.8% for the second.

First: O=C(CCl)NC1Cc2ccccc2N(C(=O)C(F)(F)F)C1 (stereo not shown) [7-L16, 2-chloro-N-[1-(2,2,2-trifluoroacetyl)-1,2,3,4-tetrahydroquinolin-3-yl]acetamide]
Second: O=C(CCl)NCc1ccccc1SC(F)(F)F [7-N12, 2-chloro-N-({2-[(trifluoromethyl)sulfanyl]phenyl}methyl)acetamide]
The viability at 48 h, 25 µM of the first is lower: 0.649% for the first, 0.794% for the second.

Going from `CC(Cl)C(=O)N(Cc1ccco1)C1CCN(C)CC1` (stereo not shown) [7-L17, 2-chloro-N-[(furan-2-yl)methyl]-N-(1-methylpiperidin-4-yl)propanamide] to `Cc1cccc2nc(C3CCN(C(=O)C(C)Cl)CC3)oc12` (stereo not shown) [7-M12, 2-chloro-1-[4-(7-methyl-1,3-benzoxazol-2-yl)piperidin-1-yl]propan-1-one], the viability at 48 h, 25 µM falls from 101% to 79.6%.

First: COc1ccccc1[C@H]1C[C@H](NC(=O)CCl)C1 [7-L18, 2-chloro-N-[(1r,3r)-3-(2-methoxyphenyl)cyclobutyl]acetamide]
Second: COc1ccc(Cl)cc1C(O)CNC(=O)CCl (stereo not shown) [7-N06, 2-chloro-N-[2-(5-chloro-2-methoxyphenyl)-2-hydroxyethyl]acetamide]
The viability at 48 h, 25 µM of the first is lower: 0.928% for the first, 0.942% for the second.

First: CC(Cl)C(=O)NCc1nc(C2CC2)n[nH]1 (stereo not shown) [7-L19, 2-chloro-N-[(3-cyclopropyl-1H-1,2,4-triazol-5-yl)methyl]propanamide]
Second: Cc1nnsc1CNC(=O)C(C)Cl (stereo not shown) [7-M07, 2-chloro-N-[(4-methyl-1,2,3-thiadiazol-5-yl)methyl]propanamide]
The viability at 48 h, 25 µM of the first is higher: 91.3% for the first, 89% for the second.

First: O=C(CCl)NCCc1ccn(C2CCCC2)n1 [7-L20, 2-chloro-N-[2-(1-cyclopentyl-1H-pyrazol-3-yl)ethyl]acetamide]
Second: Cc1cc(CNC(=O)CCl)[nH]n1 [7-L22, 2-chloro-N-[(3-methyl-1H-pyrazol-5-yl)methyl]acetamide]
The viability at 48 h, 25 µM of the first is lower: 38.7% for the first, 90.6% for the second.

Compared with `CC(NC(=O)CCl)c1nnc(-c2ccccc2F)s1` (stereo not shown) [7-L21, 2-chloro-N-{1-[5-(2-fluorophenyl)-1,3,4-thiadiazol-2-yl]ethyl}acetamide], `O=C(CCl)NC(Cc1ccccc1)c1ccccc1F` (stereo not shown) [7-N10, 2-chloro-N-[1-(2-fluorophenyl)-2-phenylethyl]acetamide] is higher in viability at 48 h, 25 µM: 0.564% for the first, 0.701% for the second.

Compared with `Cc1cnc(C(C)N2CCN(C(=O)C(C)Cl)CC2)s1` (stereo not shown) [7-M03, 2-chloro-1-{4-[1-(5-methyl-1,3-thiazol-2-yl)ethyl]piperazin-1-yl}propan-1-one], `CC(Cl)C(=O)N1CCCN(C(=O)c2cc(Cl)cn2C)CC1` (stereo not shown) [7-N07, 2-chloro-1-[4-(4-chloro-1-methyl-1H-pyrrole-2-carbonyl)-1,4-diazepan-1-yl]propan-1-one] is lower in viability at 48 h, 25 µM: 97.5% for the first, 94.5% for the second.

Going from `CC(Cl)C(=O)N(C)Cc1cn(C)nc1C(F)(F)F` (stereo not shown) [7-M04, 2-chloro-N-methyl-N-{[1-methyl-3-(trifluoromethyl)-1H-pyrazol-4-yl]methyl}propanamide] to `CCc1nocc1CN(C)C(=O)C(C)Cl` (stereo not shown) [7-M06, 2-chloro-N-[(3-ethyl-1,2-oxazol-4-yl)methyl]-N-methylpropanamide], the viability at 48 h, 25 µM rises from 91.6% to 95.1%.

Going from `CC(Cl)C(=O)NCC1CCCN(c2nccn3cnnc23)C1` (stereo not shown) [7-M05, 2-chloro-N-[(1-{[1,2,4]triazolo[4,3-a]pyrazin-8-yl}piperidin-3-yl)methyl]propanamide] to `CC(Cl)C(=O)N1CCCC(c2cnn(C)c2)C1` (stereo not shown) [7-M16, 2-chloro-1-[3-(1-methyl-1H-pyrazol-4-yl)piperidin-1-yl]propan-1-one], the viability at 48 h, 25 µM falls from 102% to 82%.

Going from `CC(Cl)C(=O)NC(Cn1cncn1)c1ccccc1` (stereo not shown) [7-M09, 2-chloro-N-[1-phenyl-2-(1H-1,2,4-triazol-1-yl)ethyl]propanamide] to `O=C(CCl)NC(Cn1cncn1)c1ccccc1` (stereo not shown) [7-N03, 2-chloro-N-[1-phenyl-2-(1H-1,2,4-triazol-1-yl)ethyl]acetamide], the viability at 48 h, 25 µM falls from 90.3% to 0.644%.

Compared with `CC(Cl)C(=O)N1CC(c2cc(CO)on2)C1` (stereo not shown) [7-M10, 2-chloro-1-{3-[5-(hydroxymethyl)-1,2-oxazol-3-yl]azetidin-1-yl}propan-1-one], `CC(Cl)C(=O)N1CC(S(=O)(=O)c2ccccc2F)C1` (stereo not shown) [7-M15, 2-chloro-1-[3-(2-fluorobenzenesulfonyl)azetidin-1-yl]propan-1-one] is higher in viability at 48 h, 25 µM: 84.9% for the first, 96.3% for the second.

Compared with `CC(Cl)C(=O)NCCCN1CCc2ccccc2C1` (stereo not shown) [7-M11, 2-chloro-N-[3-(1,2,3,4-tetrahydroisoquinolin-2-yl)propyl]propanamide], `CC(Cl)C(=O)NC(C)C(=O)N1CCc2ccccc21` (stereo not shown) [7-M21, 2-chloro-N-[1-(2,3-dihydro-1H-indol-1-yl)-1-oxopropan-2-yl]propanamide] is lower in viability at 48 h, 25 µM: 88.4% for the first, 84.1% for the second.

First: CC(Cl)C(=O)NCc1cnn2ccccc12 (stereo not shown) [7-M13, 2-chloro-N-({pyrazolo[1,5-a]pyridin-3-yl}methyl)propanamide]
Second: CC(Cl)C(=O)NCCc1cnc2c(Cl)cnn2c1 (stereo not shown) [7-M18, 2-chloro-N-(2-{3-chloropyrazolo[1,5-a]pyrimidin-6-yl}ethyl)propanamide]
The viability at 48 h, 25 µM of the first is higher: 104% for the first, 90.6% for the second.

Compared with `CC(Cl)C(=O)N(C)C1CS(=O)(=O)c2ccc(Cl)cc21` (stereo not shown) [7-M14, 2-chloro-N-(5-chloro-1,1-dioxo-2,3-dihydro-1lambda6-benzothiophen-3-yl)-N-methylpropanamide], `Cc1cc(NC(=O)CN(C)C(=O)C(C)Cl)no1` (stereo not shown) [7-M19, 2-chloro-N-methyl-N-{[(5-methyl-1,2-oxazol-3-yl)carbamoyl]methyl}propanamide] is higher in viability at 48 h, 25 µM: 73% for the first, 79.5% for the second.

First: CC(Cl)C(=O)NC(c1cccc(C(F)(F)F)c1)c1nnc[nH]1 (stereo not shown) [7-M17, 2-chloro-N-[(4H-1,2,4-triazol-3-yl)[3-(trifluoromethyl)phenyl]methyl]propanamide]
Second: N#Cc1cccc(C(NC(=O)CCl)C(F)(F)F)c1 (stereo not shown) [7-N04, 2-chloro-N-[1-(3-cyanophenyl)-2,2,2-trifluoroethyl]acetamide]
The viability at 48 h, 25 µM of the first is higher: 75.1% for the first, 0.24% for the second.

Going from `COCc1ncc2c(n1)CC1CCC2N1C(=O)C(C)Cl` (stereo not shown) [7-M20, 2-chloro-1-[5-(methoxymethyl)-4,6,12-triazatricyclo[7.2.1.0,2,7]dodeca-2,4,6-trien-12-yl]propan-1-one] to `CC(NC(=O)CCl)c1nc2c(s1)CCCCC2` (stereo not shown) [7-M22, 2-chloro-N-(1-{4H,5H,6H,7H,8H-cyclohepta[d][1,3]thiazol-2-yl}ethyl)acetamide], the viability at 48 h, 25 µM falls from 77% to 0.506%.

`CC(Cl)C(=O)NCC(=O)Nc1ccc2c[nH]nc2c1` (stereo not shown) [7-N11, 2-chloro-N-{[(2H-indazol-6-yl)carbamoyl]methyl}propanamide] showed a viability at 48 h, 25 µM of 97%.
